Measurements published in ChEMBL document CHEMBL3797148, “Antiprotozoal activity of dehydroabietic acid derivatives against Leishmania donovani and Trypanosoma cruzi” (Medchemcomm, 2016).

Experiments:
[1] = tested on: Leishmania donovani; assay: Antileishmanial activity against axenic amastigote stage of Leishmania donovani MHOM/SD/1962/1S-Cl2d assessed as inhibition of parasite growth at 50 uM after 24 hrs by Alamar blue viability assay; assay type: functional; details: read-out: GI
[2] = tested on: L6; assay: Cytotoxicity against rat L6 cells after 72 hrs by Alamar blue assay; assay type: cell-based; details: L6, 72 h
[3] = tested on: Trypanosoma cruzi; assay: Antiparasitic activity against amastigote stage of Trypanosoma cruzi Tulahuen C2C4 expressing LacZ gene infected in rat L6 cells after 96 hrs by photometric analysis; assay type: functional, organism-based; details: Tulahuen C2C4, L6, 96 h
[4] = tested on: Leishmania donovani; assay: Antileishmanial activity against Leishmania donovani promastigotes infected in human THP1 cells assessed as inhibition of amastigote growth by luciferase assay; assay type: functional, organism-based; details: THP-1
[5] = tested on: Leishmania donovani; assay: Antileishmanial activity against axenic amastigote stage of Leishmania donovani MHOM/SD/1962/1S-Cl2d assessed as inhibition of parasite growth after 24 hrs by Alamar blue viability assay; assay type: functional, organism-based
[6] = tested on: Leishmania donovani; assay: Antileishmanial activity against axenic amastigote stage of Leishmania donovani MHOM/SD/1962/1S-Cl2d assessed as inhibition of parasite growth at 15 uM after 24 hrs by Alamar blue viability assay; assay type: functional; details: read-out: GI
[7] = Selectivity index, ratio of IC50 for human THP-1 cells to IC50 for Leishmania donovani MHOM/SD/1962/1S-Cl2d axenic amastigotes; assay type: toxicity, cell-based; details: read-out: Ratio IC50
[8] = Selectivity index, ratio of IC50 for rat L6 cells to IC50 for amastigote stage of Trypanosoma cruzi Tulahuen C2C4 expressing LacZ gene infected in rat L6 cells; assay type: toxicity, cell-based; details: read-out: Ratio IC50
[9] = Cytotoxicity against human THP1 cells after 24 hrs by Alamar blue viability assay; assay type: cell-based; details: THP-1, 24 h
[10] = tested on: Leishmania donovani; assay: Antileishmanial activity against axenic amastigote stage of Leishmania donovani MHOM/SD/1962/1S-Cl2d assessed as inhibition of parasite growth at 5 uM after 24 hrs by Alamar blue viability assay; assay type: functional; details: read-out: GI
[11] = tested on: Leishmania donovani; assay: Antileishmanial activity against axenic amastigote stage of Leishmania donovani MHOM/SD/1962/1S-Cl2d assessed as inhibition of parasite growth at 1 uM after 24 hrs by Alamar blue viability assay; assay type: functional; details: read-out: GI
[12] = tested on: Leishmania infantum; assay: Antileishmanial activity against promastigote stage of Leishmania infantum MCAN/ES/2001/UCM-10 after 72 hrs by Neubauer haemocytometric analysis; assay type: functional, organism-based; details: MCAN/ES/2001/UCM-10, 72 h
[13] = tested on: Leishmania braziliensis; assay: Antileishmanial activity against promastigote stage of Leishmania braziliensis MHOM/BR/75/M2904 after 72 hrs by Neubauer haemocytometric analysis; assay type: functional; details: MHOM/BR/75/M2904, 72 h
[14] = tested on: Trypanosoma cruzi; assay: Antiparasitic activity against epimastigote stage of Trypanosoma cruzi IRHOD/CO/2008/SN3 after 72 hrs by Neubauer haemocytometric analysis; assay type: functional, organism-based; details: IRHOD/CO/2008/SN3, 72 h
[15] = tested on: Trypanosoma cruzi; assay: Potency index of ratio of Benznidazole IC50 to compound IC50 for antiparasitic activity against amastigote stage of Trypanosoma cruzi Tulahuen C2C4; assay type: functional

| Compound | inhibition of growth at 50 µM [1] | IC50 [2] | IC50 [3] | inhibition of growth at 15 µM [6] | selectivity ratio [8] | also measured |
| --- | --- | --- | --- | --- | --- | --- |
| COC(=O)[C@@H](Cc1c[nH]c2ccccc12)NC(=O)[C@]1(C)CCC[C@]2(C)c3ccc(C(C)C)cc3CC[C@@H]12 | 46.9% | – | – | – | – | – |
| COC(=O)CNC(=O)[C@]1(C)CCC[C@]2(C)c3ccc(C(C)C)cc3C(=O)C[C@@H]12 | 37.1% | – | – | – | – | – |
| CC[C@H](NC(=O)[C@]1(C)CCC[C@]2(C)c3ccc(C(C)C)cc3CC[C@@H]12)C(=O)OC | 57.6% | – | – | – | – | – |
| CC(C)c1ccc2c(c1)CC[C@H]1[C@](C)(C(=O)N[C@@H](CC3CCCCC3)C(=O)O)CCC[C@]21C | 98.1% | 29.1 µM | 22.8 µM | 92.2% | 1 | IC50 [4]: 5 µM; IC50 [5]: 1.7 µM; selectivity ratio [7]: 24; IC50 [9]: 40.5 µM; inhibition of growth at 5 µM [10]: 63.6% |
| COC(=O)[C@H](CC1CCCCC1)NC(=O)[C@]1(C)CCC[C@]2(C)c3ccc(C(C)C)cc3/C(=N\O)C[C@@H]12 | 90.8% | 13.5 µM | 5.8 µM | 85.8% | 2 | IC50 [5]: 5.6 µM; selectivity ratio [7]: 7; IC50 [9]: 37.2 µM; inhibition of growth at 5 µM [10]: 52.9% |
| COC(=O)[C@@H](Cc1ccc(O)cc1)NC(=O)[C@]1(C)CCC[C@]2(C)c3ccc(C(C)C)cc3CC[C@@H]12 | 98.9% | – | – | 94.7% | – | IC50 [5]: 11.1 µM; selectivity ratio [7]: 2; IC50 [9]: 21.7 µM; inhibition of growth at 5 µM [10]: 38.8% |
| COC(=O)[C@H](Cc1ccccc1)NC(=O)[C@]1(C)CCC[C@]2(C)c3ccc(C(C)C)cc3CC[C@@H]12 | 68.6% | – | – | – | – | – |
| C[C@@H]1[C@H](O)[C@@H](C)/C=C/C=C/C=C/C=C/C=C/C=C/C=C/[C@H](O[C@@H]2O[C@H](C)[C@@H](O)[C@H](N)[C@@H]2O)C[C@@H]2O[C@](O)(C[C@@H](O)C[C@@H](O)[C@H](O)CC[C@@H](O)C[C@@H](O)CC(=O)O[C@H]1C)C[C@H](O)[C@H]2C(=O)O [AMPHOTERICIN B] | – | – | – | – | – | inhibition of growth at 1 µM [11]: > 90% |
| COC(=O)[C@H](CC1CCCCC1)NC(=O)[C@]1(C)CCC[C@]2(C)c3ccc(C(C)C)cc3CC[C@@H]12 | 43.2% | – | – | – | – | – |
| CC(C)C[C@H](NC(=O)[C@]1(C)CCC[C@]2(C)c3ccc(C(C)C)cc3CC[C@@H]12)C(=O)O | 91.2% | – | – | 34.8% | – | – |
| COC(=O)[C@]1(C)CCC[C@]2(C)C3=C(CC[C@@H]12)C(=O)C(C(C)C)=CC3=O | – | – | – | – | – | IC50 [12]: 14.2 µM; IC50 [13]: 14.2 µM; IC50 [14]: 14.2 µM |
| CC(C)c1ccc2c(c1)CC[C@H]1[C@](C)(C(=O)O)CCC[C@]21C [DEHYDROABIETIC ACID] | 91.1% | 151 µM | 101 µM | 59.2% | 1 | – |
| CC[C@H](NC(=O)[C@]1(C)CCC[C@]2(C)c3ccc(C(C)C)cc3CC[C@@H]12)C(=O)O | 85% | – | – | 5.9% | – | – |
| COC(=O)[C@H](CC(C)C)NC(=O)[C@]1(C)CCC[C@]2(C)c3ccc(C(C)C)cc3CC[C@@H]12 | 64.9% | – | – | – | – | – |
| COC(=O)[C@H](CC1CCCCC1)NC(=O)[C@]1(C)CCC[C@]2(C)c3ccc(C(C)C)cc3C(=O)C[C@@H]12 | 90.2% | 33.5 µM | 4.2 µM | 76.3% | 8 | IC50 [4]: 6.6 µM; IC50 [5]: 4.6 µM; selectivity ratio [7]: 14; IC50 [9]: 62.1 µM; inhibition of growth at 5 µM [10]: 33.3% |
| COC(=O)[C@@H](NC(=O)[C@]1(C)CCC[C@]2(C)c3ccc(C(C)C)cc3CC[C@@H]12)C(C)C | 57.1% | – | – | – | – | – |
| COC(=O)[C@@H](CCSC)NC(=O)[C@]1(C)CCC[C@]2(C)c3ccc(C(C)C)cc3CC[C@@H]12 | 88.7% | – | – | 50.8% | – | – |

| Compound | inhibition of growth at 50 µM [1] | IC50 [2] | IC50 [3] | inhibition of growth at 15 µM [6] | selectivity ratio [8] | also measured |
| --- | --- | --- | --- | --- | --- | --- |
| CC(C)c1ccc2c(c1)C(=O)C[C@H]1[C@](C)(C(=O)N[C@@H](CC3CCCCC3)C(=O)O)CCC[C@]21C | 99.1% | 77.2 µM | 3.9 µM | 98.6% | 20 | IC50 [4]: 2.3 µM; IC50 [5]: 4 µM; selectivity ratio [7]: 13; IC50 [9]: 52 µM; inhibition of growth at 5 µM [10]: 82.8% |
| CC(C)c1ccc2c(c1)CC[C@H]1[C@](C)(C(=O)N[C@H](C(=O)O)C(C)C)CCC[C@]21C | 90.6% | – | – | 10.9% | – | – |
| COC(=O)[C@@H](Cc1ccccc1)NC(=O)[C@]1(C)CCC[C@]2(C)c3ccc(C(C)C)cc3CC[C@@H]12 | 77.5% | – | – | 51.5% | – | – |
| CSCC[C@@H](NC(=O)[C@]1(C)CCC[C@]2(C)c3ccc(C(C)C)cc3CC[C@@H]12)C(=O)O | 98% | – | – | 47% | – | – |
| CC(C)c1ccc2c(c1)CC[C@H]1[C@](C)(C(N)=O)CCC[C@]21C | 55.2% | – | – | – | – | – |
| CC(C)c1ccc2c(c1)CC[C@H]1[C@](C)(C(=O)N[C@H](Cc3ccccc3)C(=O)O)CCC[C@]21C | 98.3% | 60.6 µM | 27.7 µM | 96.8% | 2 | IC50 [5]: 5.2 µM; selectivity ratio [7]: 8; IC50 [9]: 41.4 µM; inhibition of growth at 5 µM [10]: 54.1% |
| COC(=O)CNC(=O)[C@]1(C)CCC[C@]2(C)c3ccc(C(C)C)cc3CC[C@@H]12 | 28.7% | – | – | – | – | – |
| COC(=O)[C@@H](Cc1ccc[n+]([O-])c1)NC(=O)[C@]1(C)CCC[C@]2(C)c3ccc(C(C)C)cc3CC[C@@H]12 | 27.1% | 85.9 µM | 32.7 µM | – | 3 | – |
| CC(C)c1ccc2c(c1)CC[C@H]1[C@](C)(C(=O)N[C@H](Cc3ccc[n+]([O-])c3)C(=O)O)CCC[C@]21C | 1.9% | – | – | – | – | – |
| COC(=O)[C@@H](Cc1cccnc1)NC(=O)[C@]1(C)CCC[C@]2(C)c3ccc(C(C)C)cc3CC[C@@H]12 | 98.6% | 24.1 µM | 1.4 µM | 16.5% | 17 | Ratio IC50 [15]: 1.5 |
| CC(C)c1ccc2c(c1)CC[C@H]1[C@](C)(C(=O)N[C@H](Cc3cccnc3)C(=O)O)CCC[C@]21C | 9.8% | 174 µM | 83.1 µM | – | 2 | – |
| CC(C)c1ccc2c(c1)CC[C@H]1[C@](C)(C(=O)N[C@H](Cc3ccc(O)cc3)C(=O)O)CCC[C@]21C | 96.1% | – | – | 9.8% | – | – |
| CC(C)c1ccc2c(c1)CC[C@H]1[C@](C)(C(=O)N[C@@H](Cc3ccccc3)C(=O)O)CCC[C@]21C | 98.1% | 45.4 µM | 33.1 µM | 77.6% | 1 | IC50 [4]: 9 µM; IC50 [5]: 2.5 µM; selectivity ratio [7]: 33; IC50 [9]: 82.2 µM; inhibition of growth at 5 µM [10]: 53.1% |
| CC(C)c1ccc2c(c1)/C(=N\O)C[C@H]1[C@](C)(C(=O)N[C@@H](CC3CCCCC3)C(=O)O)CCC[C@]21C | 97.7% | – | – | 52.3% | – | – |
| CC(C)c1ccc2c(c1)CC[C@H]1[C@](C)(C(=O)NCC(=O)O)CCC[C@]21C | 69.3% | – | – | – | – | – |
| CC(C)c1ccc2c(c1)CC[C@H]1[C@](C)(C(=O)N[C@H](Cc3c[nH]c4ccccc34)C(=O)O)CCC[C@]21C | 98.3% | – | – | 53.9% | – | – |
